From PubChem BioAssay (NCI)
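GI50 = concentration required for 50% inhibition of growth. TGI is the concentration that stops growth completely.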

Key:
Experiment in all cases: NCI tumour cell line growth inhibition, 384-well format
HS 578T breast = test system: HS 578T breast
BT-549 breast = test system: BT-549 breast
SK-OV-3 ovarian = test system: SK-OV-3 ovarian
786-0 renal = test system: 786-0 renal
MDA-MB-435 melanoma = test system: MDA-MB-435 melanoma
SF-295 CNS = test system: SF-295 CNS
HCT-15 colon = test system: HCT-15 colon
SK-MEL-2 melanoma = test system: SK-MEL-2 melanoma
T-47D breast = test system: T-47D breast
OVCAR-3 ovarian = test system: OVCAR-3 ovarian
UO-31 renal = test system: UO-31 renal
SW-620 colon = test system: SW-620 colon
SN12C renal = test system: SN12C renal
NCI-H322M lung = test system: NCI-H322M lung
MALME-3M melanoma = test system: MALME-3M melanoma
MDA-MB-231 breast = test system: MDA-MB-231 breast
NCI-H522 lung = test system: NCI-H522 lung
SNB-75 CNS = test system: SNB-75 CNS
A549 NSCLC = test system: A549 NSCLC
MOLT-4 leukemia = test system: MOLT-4 leukemia
NCI-H226 lung = test system: NCI-H226 lung
NCI-H23 lung = test system: NCI-H23 lung
SR leukemia = test system: SR leukemia
NCI/ADR-RES ovarian = test system: NCI/ADR-RES ovarian
SK-MEL-5 melanoma = test system: SK-MEL-5 melanoma
MCF7 breast = test system: MCF7 breast
UACC-62 melanoma = test system: UACC-62 melanoma
COLO 205 colon = test system: COLO 205 colon
ACHN renal = test system: ACHN renal
OVCAR-5 ovarian = test system: OVCAR-5 ovarian
CCRF-CEM leukemia = test system: CCRF-CEM leukemia
EKVX NSCLC = test system: EKVX NSCLC
MDA-MB-468 breast = test system: MDA-MB-468 breast
SK-MEL-28 melanoma = test system: SK-MEL-28 melanoma
NCI-H460 NSCLC = test system: NCI-H460 NSCLC
KM12 colon = test system: KM12 colon
K-562 leukemia = test system: K-562 leukemia
RXF 393 renal = test system: RXF 393 renal
IGROV1 ovarian = test system: IGROV1 ovarian
TK-10 renal = test system: TK-10 renal
A498 renal = test system: A498 renal
DU-145 prostate = test system: DU-145 prostate
U251 glioblastoma = test system: U251 glioblastoma
CAKI-1 renal = test system: CAKI-1 renal
SF-268 CNS = test system: SF-268 CNS
OVCAR-4 ovarian = test system: OVCAR-4 ovarian
SNB-19 CNS = test system: SNB-19 CNS
HOP-92 NSCLC = test system: HOP-92 NSCLC
HT29 colon = test system: HT29 colon
HL-60(TB) leukemia = test system: HL-60(TB) leukemia
HOP-62 NSCLC = test system: HOP-62 NSCLC
UACC-257 melanoma = test system: UACC-257 melanoma
M14 melanoma = test system: M14 melanoma
SF-539 CNS = test system: SF-539 CNS
RPMI-8226 leukemia = test system: RPMI-8226 leukemia
LOX IMVI melanoma = test system: LOX IMVI melanoma
HCT-116 colon = test system: HCT-116 colon
PC-3 prostate = test system: PC-3 prostate
HCC-2998 colon = test system: HCC-2998 colon

With Cc1cc(Nc2nc(N[C@@H](C)c3ncc(F)cn3)ncc2Cl)n[nH]1 the GI50 (HS 578T breast) was 11.6 µM, the TGI (HS 578T breast) was 29.9 µM and the GI50 (BT-549 breast) was 20.7 µM. The TGI (BT-549 breast) was 78.1 µM, the GI50 (SK-OV-3 ovarian) was 18.6 µM and the TGI (SK-OV-3 ovarian) was 78.1 µM. The GI50 ([…]-0 renal) was 33.6 µM, the TGI (786-0 renal) was > 100 µM and the GI50 (MDA-MB-435 melanoma) was 17.1 µM. The TGI (MDA-MB-435 melanoma) was > 100 µM, the GI50 (SF-295 CNS) was 47.4 µM and the TGI (SF-295 CNS) was > 100 µM. The GI50 (HCT-15 colon) was 26.4 µM, the TGI (HCT-15 colon) was > 100 µM and the GI50 (SK-MEL-2 melanoma) was 44.7 µM. The TGI (SK-MEL-2 melanoma) was 85.1 µM, the GI50 (T-47D breast) was 29.8 µM and the TGI (T-47D breast) was > 100 µM. The GI50 (OVCAR-3 ovarian) was 43.8 µM, the TGI (OVCAR-3 ovarian) was > 100 µM and the GI50 (UO-31 renal) was 36.7 µM. For the same compound, the TGI (UO-31 renal) was > 100 µM, the GI50 (SW-620 colon) was 24.3 µM and the TGI (SW-620 colon) was 91.3 µM. For the same compound, the GI50 (SN12C renal) was 31.3 µM, the TGI (SN12C renal) was > 100 µM and the GI50 (NCI-H322M lung) was 42.6 µM. For the same compound, the TGI (NCI-H322M lung) was > 100 µM, the GI50 (MALME-3M melanoma) was 52.8 µM and the TGI (MALME-3M melanoma) was > 100 µM. The GI50 (MDA-MB-231 breast) was 27.5 µM, the TGI (MDA-MB-231 breast) was > 100 µM and the GI50 (NCI-H522 lung) was 4.66 µM. It also gave a TGI (NCI-H522 lung) of 28.5 µM, a GI50 (SNB-75 CNS) of 8.7 µM and a TGI (SNB-75 CNS) of 27.9 µM. For the same compound, the GI50 (A549 NSCLC) was 30.4 µM, the TGI (A549 NSCLC) was > 100 µM and the GI50 (MOLT-4 leukemia) was 16.7 µM. For the same compound, the TGI (MOLT-4 leukemia) was 33.8 µM, the GI50 (NCI-H226 lung) was 12 µM and the TGI (NCI-H226 lung) was > 100 µM. For the same compound, the GI50 (NCI-H23 lung) was 35.2 µM, the TGI (NCI-H23 lung) was > 100 µM and the GI50 (SR leukemia) was 5.01 µM. The TGI (SR leukemia) was 12.2 µM, the GI50 (NCI/ADR-RES ovarian) was 20.2 µM and the TGI (NCI/ADR-RES ovarian) was 60.4 µM. The GI50 (SK-MEL-5 melanoma) was 30.5 µM, the TGI (SK-MEL-5 melanoma) was > 100 µM and the GI50 (MCF7 breast) was 44.3 µM. The TGI (MCF7 breast) was > 100 µM, the GI50 (UACC-62 melanoma) was 40.7 µM and the TGI (UACC-62 melanoma) was > 100 µM. The GI50 (COLO 205 colon) was 41 µM, the TGI (COLO 205 colon) was > 100 µM and the GI50 (ACHN renal) was 31.2 µM. For the same compound, the TGI (ACHN renal) was > 100 µM, the GI50 (OVCAR-5 ovarian) was 45.1 µM and the TGI (OVCAR-5 ovarian) was > 100 µM. The GI50 (CCRF-CEM leukemia) was 20.7 µM, the TGI (CCRF-CEM leukemia) was 45.1 µM and the GI50 (EKVX NSCLC) was 23.9 µM. The TGI (EKVX NSCLC) was 79.3 µM, the GI50 (MDA-MB-468 breast) was 17.3 µM and the TGI (MDA-MB-468 breast) was 33.1 µM. The GI50 (SK-MEL-28 melanoma) was 59.1 µM, the TGI (SK-MEL-28 melanoma) was > 100 µM and the GI50 (NCI-H460 NSCLC) was 21.5 µM. The TGI (NCI-H460 NSCLC) was > 100 µM, the GI50 (KM12 colon) was 0.381 µM and the TGI (KM12 colon) was > 100 µM. The GI50 (K-562 leukemia) was 27.9 µM, the TGI (K-562 leukemia) was > 100 µM and the GI50 (RXF 393 renal) was 18.9 µM. For the same compound, the TGI (RXF 393 renal) was 46 µM, the GI50 (IGROV1 ovarian) was 27.8 µM and the TGI (IGROV1 ovarian) was > 100 µM. For the same compound, the GI50 (TK-10 renal) was 34.6 µM, the TGI (TK-10 renal) was > 100 µM and the GI50 (A498 renal) was 35.8 µM. The TGI (A498 renal) was > 100 µM, the GI50 (DU-145 prostate) was 37.1 µM and the TGI (DU-145 prostate) was > 100 µM. For the same compound, the GI50 (U251 glioblastoma) was 32.1 µM, the TGI (U251 glioblastoma) was > 100 µM and the GI50 (CAKI-1 renal) was 23.7 µM. For the same compound, the TGI (CAKI-1 renal) was > 100 µM, the GI50 (SF-268 CNS) was 18.4 µM and the TGI (SF-268 CNS) was 63.4 µM. The GI50 (OVCAR-4 ovarian) was 77.8 µM, the TGI (OVCAR-4 ovarian) was > 100 µM and the GI50 (SNB-19 CNS) was 47.5 µM. The TGI (SNB-19 CNS) was > 100 µM, the GI50 (HOP-92 NSCLC) was 27.8 µM and the TGI (HOP-92 NSCLC) was 91.3 µM. The GI50 (HT29 colon) was 27.4 µM, the TGI (HT29 colon) was > 100 µM and the GI50 (HL-60(TB) leukemia) was 16 µM. The TGI (HL-60(TB) leukemia) was 31 µM, the GI50 (HOP-62 NSCLC) was 39.1 µM and the TGI (HOP-62 NSCLC) was > 100 µM. For the same compound, the GI50 (UACC-257 melanoma) was > 100 µM, the TGI (UACC-257 melanoma) was > 100 µM and the GI50 (M14 melanoma) was 61.7 µM. For the same compound, the TGI (M14 melanoma) was > 100 µM, the GI50 (SF-539 CNS) was 14 µM and the TGI (SF-539 CNS) was 34.1 µM. For the same compound, the GI50 (RPMI-8226 leukemia) was 18.4 µM, the TGI (RPMI-8226 leukemia) was 73 µM and the GI50 (LOX IMVI melanoma) was 27.6 µM. The TGI (LOX IMVI melanoma) was 71 µM, the GI50 (HCT-116 colon) was 17.4 µM and the TGI (HCT-116 colon) was > 100 µM. For the same compound, the GI50 (PC-3 prostate) was 42.1 µM, the TGI (PC-3 prostate) was > 100 µM and the GI50 (HCC-2998 colon) was 28.3 µM. For the same compound, the TGI (HCC-2998 colon) was > 100 µM.
